# Reference: patent US4599331A, “Etianic acids as antiangiogenics” (Syntex (U.S.A.) Inc., priority 1984, dated 1986)
# Values joined by “and” are separate entries in the source; they are usually repeats but may differ in a detail not shown here. Identical values can stand only once.
# What was measured:
# [1] = tested on: tyrosine aminotransferase (TAT); test: tyrosine aminotransferase (TAT) induction in HTC cells; assay type: cell-based, rat; conditions: Rattus norvegicus, Table 1, 24 or 48 hours, from 10^-6 M down, relative to dexamethasone = 1, read-out: Efficacy (DEX = 1) TAT
# Procedure: In this example, tyrosine aminotransferase (TAT) activity was determined by a spectrophotometric assay. This enzyme catalyzes the conversion of tyrosine to p-hydroxyphenylpyruvate. This example is a standard in vitro test for glucocorticoid activity.
# Addition of base caused the conversion of p-hydroxyphenylpyruvate to p-hydroxybenzaldehyde, which was quantitatively measured by absorbance at 331 nm. HTC cells, the target cells for the compound tested were grown in DMEM+10% FCS. Subconfluent cell cultures were incubated with test compounds in 6 well Costar dishes for 24 or 48 hours. The cells were incubated in either serum-free DMEM or DMEM containing 10% FCS previously filtered over activated charcoal. The cells were harvested in PBS using a rubber policeman, then washed once in PBS by centrifugation and resuspended in a 0.3 ml lysis buffer of 10 mM Tris, 10 mM EDTA and 0.25M sucrose at pH 7.4. The cells were then lysed by three cycles of freeze-thawing using dry ice and a 37° C. waterbath and the cells debris was pelleted by centrifugation for 2 min at 12,000 9 in an Eppendorf centrifuge.
# The supernatant was used for a protein determination using either E+K stain or BioRad protein assay kit and TAT activity. 0.1 ml TAT buffer having 50 mM KH2 PO4, 1 mM EDTA, 0.1 mM Dithiothereitol (DTT), and 5 mg/ml BSA at pH 7.6 and 0.1 ml cell extract were mixed in glass tubes. A prewarmed mixture of 200 parts of a 2.3 mg/ml tyrosine solution in 0.05M phosphate buffer, 100 parts 0.125M KH2 PO4, 10 parts of a 0.92 mg/ml and ketoglutarate solution and 1 part of a 0.04 mg/ml pyridoxalphosphate solution had been previously made up. […] of the prewarmed mixture was added to each tube and allowed to react at 37° C. for 15 min. The addition of 0.1 ml 7N […] stopped the reaction. The mixture was then immediately vortexed.
# Aldehyde formation was allowed to proceed at 37° C. for 30 min. The amound of aldehyde formed was determined by UV spectroscopic means. Absorbance was read at 331 nm using a solution composed of 0.1 ml TAT buffer, 0.1 ml lysis buffer, 0.7 ml reaction mixture and 0.1 ml 7N KOH as a blank. Optical Density values are linearily corrected for protein content.
# As the absolute amount of enzyme induction varies between experiments, results are expressed as percent of the maximal induction obtained with dexamethasone, which was run as a standard in each assay.
# In this series, compounds were assayed from 10^-6 M down. Results are expressed in the TAT column of tables 1, and 2 as the induction ability of a compound as compared to dexamethasone; a compound may either be a partial inducer or a superinducer.
# [2] = tested on: Hamster Melanoma RPM1 1846 tumor cells; test: hamster cheek pouch (HCP) angiogenesis inhibition, 1846 tumor cell stimulus; assay type: in vivo, Male Syrian Golden hamsters; conditions: Table 1; 3×10^5 tumor cells; between 0.5 and 4 mg/kg s.c. daily; each number independent result, average of six animals
# Procedure: Each compound of the series was also tested for anti-angiogenic activity by an in vivo test that measured vascularization in a hamster's cheek pouch in response to either an angiogenic polypeptide growth factor, epidermal growth factor (EGF) or an induced […].
# (§1) In this example, the in vivo angiogenesis inhibition activity of etianic acid esters was tested. Male Syrian Golden hamsters, weighing between 120 g and 150 g were anaesthetized by intraperitoneal (I.P.) injection of a rodent anaesthetic mixture consisting of 50 mg/kg ketamine hydrochloride, 5 mg/kg xylazine and 1 mg/kg acepromazine. The left cheek pouch of each animal was everted with a pincet and pinned down to a plexiglass-rubber stage and observed through a Zeiss stereomicroscope. 10 μg of EGF or 3×10^5 Hamster Melanoma RPM1 1846 tumor cells in 10 μl Cibachrome Blue agarose (Amicon) were injected subcutaneously in the left lower quadrant of the pouch with a Hamilton syringe.
# (§2) The pouch was then reinserted and animals were kept under observation until recovered from anaesthesia.
# The animals were dosed daily with one test compound, starting one day before stimulus injection and continuing until observation. The test compounds were dissolved in a minimum volume of ethanol and diluted in sterile phosphate buffer solution. […]
# (§3) Either five days or twelve days after the EGF or tumor cell injection, animals were anaesthetized by I.P. injection of the rodent anaesthetic mixture. The pouch was everted on the stage and examined under the stereomicroscope. Pictures were taken with a 35 mm using Kodak Tungsten 50 professional films.
# (§4) The following subjective scoring was used for evaluating the photographs:
# (§5) 1: minimal branching of vessels in the vicinity of injection site.
# (§6) 2: new vessels reach injection site, area involved is minimal (<50% of area surrounding injection site).
# (§7) 3: many vessels reach and cross injection site, new vessels are tortuous, (>50% of area surrounding injection site).
# (§8) 4: "full blown", many tortuous vessels, leakages, hemorrhages, 100% of area around injection site, invasion of new vessels into non-injected areas.
# (§9) In the case of the tumor, tumor size was also determined. (See Table 4)
# (§10) Results are expressed as the mean of the score. The results are shown in Tables 1 and 2 are percent inhibition of HCP Stimulus.
# [3] = tested on: Hamster Melanoma RPM1 1846 tumor cells; test: Inhibition of tumor growth (2 week assay); assay type: in vivo, Male Syrian Golden hamsters; conditions: Table 3, dose 0.8 mg/kg
# Procedure: as §1, §2
# The animals were dosed daily with one test compound, starting one day before stimulus injection and continuing until observation. The test compounds were dissolved in a minimum volume of ethanol and diluted in sterile phosphate buffer solution. Then between 0.5 and 4 mg/kg of the test compound was injected subcutaneously.
# as §3, §4, §5, §6, §7, §8, §9, §10
Structure (SMILES),Emax [1],% Inhibition HCP Stimulus 1846 [2],Angiogenesis % Inh. [3],Tumor area % (inhibition of tumor growth) [3],"Angiogenesis score ([3]; mean of score 0 (no new vessels) to 4 (full blown), untreated 3.1 [A], 2.9 [B])","Tumor area Mn (mm^2) ([3]; untreated 40.7 ± 16.2 [A], 27.5 ± 15.3 [B])"
CCC(=O)O[C@]1(C(=O)OC)[C@@H](C)C[C@H]2[C@@H]3CCC4=CC(=O)C=C[C@]4(C)[C@@]3(F)[C@@H](O)C[C@@]21C [compound 1],100%,40%,,,,
CCC(=O)O[C@]1(C(=O)OC)[C@@H](C)C[C@H]2[C@@H]3CC(F)C4=C(F)C(=O)C=C[C@]4(C)[C@@]3(F)[C@@H](O)C[C@@]21C (stereo partly drawn) [compound 3],150%,70%,,,,
CCCC(=O)O[C@]1(C(=O)OC)[C@@H](C)C[C@H]2[C@@H]3CC(F)C4=CC(=O)C=C[C@]4(C)[C@@]3(F)[C@@H](O)C[C@@]21C (stereo partly drawn) [compound 4],100%,26%,,,,
CCC(=O)O[C@]1(C(=O)OC)[C@H](C)C[C@H]2[C@@H]3CC(F)C4=CC(=O)C=C[C@]4(C)[C@@]3(F)[C@@H](O)C[C@@]21C (stereo partly drawn) [compound 7],200%,,,,,
CCC(=O)O[C@]1(C(=O)OC)[C@H](C)C[C@H]2[C@@H]3CC(F)C4=C(F)C(=O)C=C[C@]4(C)[C@@]3(F)[C@@H](O)C[C@@]21C (stereo partly drawn) [compound 8],100%,41% and 58% and 75%,,,,
CCCC(=O)O[C@]1(C(=O)OC)[C@H](C)C[C@H]2[C@@H]3CC(F)C4=CC(=O)C=C[C@]4(C)[C@@]3(F)[C@@H](O)C[C@@]21C (stereo partly drawn) [compound 9],90%,32%,29%,86%,2.2,5.7 ± 5.9 mm^2
